Read-outs that look alike come from different tables or passages of the source.
Tests used:
[1] = Radical scavenging activity (DPPH); conditions: 25 μM, positive control
Experimental: Compound 27a was incubated with 2,2-diphenyl-1-picrylhydrazyl (DPPH, Sigma-Aldrich; 50 mM) in ethanol for 30 min, and the absorbance was measured at 520 nm using a Multiskan Spectrum Microplate Reader (Thermo Fisher Scientific).[72] The positive control ascorbic acid (Sigma-Aldrich; 25 μM) scavenged DPPH radicals by 36 ± 11%.

[2] = test system: reconstructed human epidermis (RHE); experiment: Experimental atopic dermatitis in reconstructed human epidermis (RHE); type: cell-based; conditions: 1 μM, control
Experimental: Compound 27a was evaluated in an inflammatory model of RHE by Synelvia S.A.S. (Labège, France) according to the company’s protocol.[88] In brief, primary human keratinocytes were used to generate RHE on polycarbonate filters as described.[88] RHE was allowed to acclimate for 6 days (5% CO2, 37 °C) prior to incubation with 27a (5, 10, 25 μM), dexamethasone (1 μM), or vehicle (0.05% DMSO), and a proinflammatory cytokine cocktail for 4 days at 5% CO2 and 37 °C. The culture medium including compounds and cytokines was changed on days 6, 8, and 10. Each culture condition was repeated three times. Acute cytotoxicity of 27a was excluded at the concentrations studied within 24 h by measuring the mitochondrial dehydrogenase activity (MTT assay).
Morphological changes (i.e., spongiosis and the formation of keratohyalin granules) were evaluated for sections of paraffin-embedded RHEs after hematoxylin-eosin staining.[89] The permeability of the skin barrier was estimated from the transepidermal water loss at the RHE surface.[90] The surface pH was determined with a pH electrode as reported.[89] The permeability of the stratum corneum was addressed by applying Lucifer yellow onto the RHE surface and inspecting the penetration by fluorescence microscopy.[88] TSLP and IL-8 levels were analyzed by ELISA (according to the specifications of Synelvia S.A.S.) in the culture medium on day 2 and day 4 after addition of cytokines, respectively.

5-LOX [3] = target: T1, 5-LOX (Homo sapiens, UniProt P09917); experiment: 5-LOX product formation in activated PMNL; conditions: PMNL, read-out: 5-LOX PMNL residual activity at 3 µM (Table S1);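 note: freshly isolated human PMNL in PBS pH 7.4 plus glucose, preincubated 10 min at 37 °C with compound, 5-LOX products (all-trans LTB4 isomers, 5-HETE) quantified by RP-HPLC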
T1 sequence (P09917 1-674): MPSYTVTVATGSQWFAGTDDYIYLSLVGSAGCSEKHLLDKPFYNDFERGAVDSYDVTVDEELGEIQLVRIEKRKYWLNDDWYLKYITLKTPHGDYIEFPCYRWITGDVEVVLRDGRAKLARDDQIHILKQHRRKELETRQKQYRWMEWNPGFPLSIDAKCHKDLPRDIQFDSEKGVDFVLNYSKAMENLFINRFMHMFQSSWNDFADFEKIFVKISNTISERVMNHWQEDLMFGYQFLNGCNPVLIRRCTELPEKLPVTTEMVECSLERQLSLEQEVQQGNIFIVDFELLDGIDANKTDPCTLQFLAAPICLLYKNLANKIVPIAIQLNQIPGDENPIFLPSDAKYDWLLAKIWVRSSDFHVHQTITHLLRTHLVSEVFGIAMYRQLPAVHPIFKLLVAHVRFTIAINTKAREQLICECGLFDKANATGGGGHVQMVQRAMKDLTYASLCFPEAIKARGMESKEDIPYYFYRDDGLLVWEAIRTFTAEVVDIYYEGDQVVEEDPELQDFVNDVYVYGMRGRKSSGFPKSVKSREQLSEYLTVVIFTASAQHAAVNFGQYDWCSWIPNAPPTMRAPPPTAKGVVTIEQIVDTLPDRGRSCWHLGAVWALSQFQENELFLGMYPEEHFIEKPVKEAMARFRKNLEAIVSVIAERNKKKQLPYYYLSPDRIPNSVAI
Experimental: These volunteers regularly donated blood (every 8–12 weeks) and were physically inspected by a clinician.
Erythrocytes were removed by dextran sedimentation and hypotonic lysis. PMNL were obtained from the cell pellet and platelets from the supernatant.
Freshly isolated PMNL (5 × 10^6) suspended in PBS pH 7.4 with 1 mg/mL glucose or freshly withdrawn human whole blood were preincubated with the test compounds for 10 min (or as indicated) at 37 °C. […] The reaction was stopped with an equal volume of methanol.

5-LOX [4] = target: T1, 5-LOX; experiment: Cell-free 5-LOX activity (isolated human recombinant enzyme); conditions: read-out: 5-LOX enzyme residual activity at 1 µM (Table S1)
Experimental: Human recombinant 5-LOX was expressed in E. coli Bl21 (DE3) cells that were transformed with pT3–5LOX (wt 5-LOX), 5-LOX_3W (triple mutation of Trp102Ala/Trp13Ala/Trp75Ala), or 5-LOX_R (single mutant of the Arg101Asp plasmid) and purified on an ATP-agarose column (Econo-Pac, Bio-Rad, Hercules, CA) by affinity chromatography.[6],[75]
Purified 5-LOX (0.5 μg in PBS pH 7.4 containing 1 mM EDTA and 1 mM ATP) was preincubated with the vehicle (DMSO) or test compounds for 10 min and prewarmed at 37 °C.

5-LOX [5] = target: T1, 5-LOX; conditions: supplementary csv; # published in ref Pein et al.4; read-out: IC50 (5-LOX PMNL); cited from earlier work
5-LOX [6] = target: T1, 5-LOX; design: made in house; host or cells: E. coli Bl21 (DE3); conditions: supplementary csv; # published in ref Pein et al.4; read-out: IC50 (5-LOX enzyme); cited from earlier work
[7] = test system: zymosan-induced murine peritonitis; experiment: Zymosan-induced peritonitis in mice; type: in vivo; conditions: 3 mg/kg p.o., 30 min post zymosan
Experimental: Male CD-1 mice (33–39 g, 6–8 weeks, Charles River Laboratories; Calco, Italy) and female BALB/c mice (20 g, 8 weeks, Charles River Laboratories) were fed with standard rodent chow and water and acclimated for 4 days at a 12 h light and 12 h dark schedule in a constant air-conditioned environment (21 ± 2 °C). Mice were randomly assigned to groups, and experiments were carried out during the light phase.
Zymosan (2 mg/mL in saline, i.p., 0.5 mL, Sigma-Aldrich) was injected at 30 min (i.p.) or 60 min (p.o.) post compound administration. Mice were sacrificed by inhalation of CO2 after another 30 min to determine LTC4 levels, lipid mediator profiles, metabolites, and vascular permeability and after 4 h to analyze LTB4 levels and cell infiltration.[72] Plasma and peritoneal exudates were collected, and cells were counted in exudates after trypan blue staining. Vascular permeability was measured by injection of Evans blue dye (40 mg/kg in saline, 0.3 mL, Sigma-Aldrich) into the tail vain directly before peritonitis induction.[72] The exudate was centrifuged (3000g, 5 min), and the absorbance was measured at 610 nm (DU730 spectrophotometer, Beckman Coulter, Krefeld, Germany). Levels of LTB4 and cysteinyl-LTs (dominated by LTC4) were quantified in the exudate by ELISA (Enzo Life Sciences, Lörrach, Germany) according to the manufacturer’s instructions. Compound 27a, its metabolites, and lipid mediators were extracted and analyzed by UPLC-MS/MS.

| SMILES | Scavenging of DPPH radicals [1] [%] | Cytokine-induced responses in RHE [2] | remaining activity at 3 µM (5-LOX [3]) [%] | remaining activity at 1 µM (5-LOX [4]) [%] | IC50 (5-LOX [5]) [nM] | IC50 (5-LOX [6]) [nM] | Cysteinyl-LTs in the exudate [7] |
| --- | --- | --- | --- | --- | --- | --- | --- |
| O=C1O[C@H]([C@@H](O)CO)C(O)=C1O [ascorbic acid, reference compound] | 36 ± 11 |  |  |  |  |  |  |
| C[C@@H]1C[C@H]2[C@@H]3CCC4=CC(=O)C=C[C@]4(C)[C@@]3(F)[C@@H](O)C[C@]2(C)[C@@]1(O)C(=O)CO [Dexamethasone, reference compound] |  | suppressed these cytokine-induced responses |  |  |  |  |  |
| C/C(=C/CC/C(C)=C/CC/C(C)=C/CC[C@]1(C)CCc2cc(O)cc(C)c2O1)CO [Compound 10e, δ-(Z)-deoxyamplexichromanol] |  |  | 2 ± 0.2 | 0.3 ± 0.2 | 220 ± 40 | 140 ± 30 |  |
| C/C(=C\CC/C(C)=C/CC/C(C)=C/CC[C@]1(C)CCc2c(C)c(O)cc(C)c2O1)CO [Compound 10b] |  |  | 7.7 ± 1.3 | 0.2 ± 0.1 | 380 ± 90 | 90 ± 30 |  |
| C/C(=C/CC/C(C)=C/CC/C(C)=C/CC[C@]1(C)CCc2cc(O)c(C)c(C)c2O1)CO [Compound 10d] |  |  | 1.1 ± 1.1 | 0 | 140 ± 20 | 120 ± 30 |  |
| CC(C)=CCC/C(C)=C/CC/C(C)=C/CC[C@]1(C)CCc2cc(O)cc(C)c2O1 [Compound 6d, δ-tocotrienol] |  |  | 74.9 ± 8 | 6.7 ± 3.1 | > 3000 | 170 ± 100 |  |
| Cc1cc(O)cc2c1O[C@](C)(CCCC(C)CCCC(C)CCCC(C)CO)CC2 (stereo partly drawn) [Compound 9b] |  |  | 22.6 ± 2.4 | 2.1 ± 0.3 | 540 ± 180 | 120 ± 40 |  |
| C/C(=C\CC/C(C)=C/CC/C(C)=C/CC[C@]1(C)CCc2c(C)c(O)c(C)c(C)c2O1)CO [Compound 10a] |  |  | 13.2 ± 2 | 0.2 ± 0.1 | 270 ± 100 | 110 ± 10 |  |
| Cc1c(C)c2c(c(C)c1O)CC[C@@](C)(CCCC(C)CCCC(C)CCCC(C)CO)O2 (stereo partly drawn) [Compound 9a, α-T-13′-CH2OH] |  |  | 21.6 ± 2.5 | 1.5 ± 0.4 | 190 ± 50 | 350 ± 40 |  |
| CC(c1cc2ccccc2s1)N(O)C(N)=O (stereo not drawn) [zileuton, reference compound] |  |  |  |  |  |  | did not evoke a stronger effect |
| Cc1c(C)c2c(c(C)c1O)CC[C@@](C)(CCC[C@H](C)CCC[C@H](C)CCCC(C)C)O2 [Compound 1a, α-tocopherol] |  |  | 88.6 ± 10.5 | 86.1 ± 8.3 | > 3000 | > 1000 |  |
| CC(C)=CCC/C(C)=C/CC/C(C)=C/CC[C@]1(C)CCc2c(C)c(O)cc(C)c2O1 [Compound 6b] |  |  | 41.4 ± 8 | 6.4 ± 3.2 | 2110 ± 360 | 190 ± 30 |  |
| C/C(=C\CC/C(C)=C/CC/C(C)=C/CC[C@]1(C)CCc2cc(O)cc(C)c2O1)CO [Compound 10c] |  |  | 8.8 ± 1.9 | 2.7 ± 1.5 | 1260 ± 330 | 150 ± 50 |  |
| Cc1cc(O)c(C)c2c1O[C@](C)(CCC[C@H](C)CCC[C@H](C)CCCC(C)C)CC2 [Compound 1b] |  |  | 79.6 ± 6.1 | 32.8 ± 9 | > 3000 | 750 ± 150 |  |
| Cc1c(O)cc2c(c1C)O[C@](C)(CCC[C@H](C)CCC[C@H](C)CCCC(C)C)CC2 [Compound 1c] |  |  | 78.5 ± 13.6 | 47 ± 4.5 | > 3000 | 910 ± 150 |  |

— PMC8365602 (Journal of Medicinal Chemistry, 2021)
